“And” between values parts separate entries of the source, which are not always exact repeats. Equal values may be shown once.
Test system: 435261-313-R-J1-PDC tumor spheroid viability
Assay: Anticancer human tumor 435261-313-R-J1-PDC patient-derived colon adenocarcinoma cell line growth inhibition [PI3K]
Settings: spheroids with HUVEC and MSC; for viability, T/C: stronger effect = lower value
Procedure, shortened: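 Targeted small molecules plus PI3K inhibitors, half-log dose series from Cmax (default top 10 microM), were applied to heterotypic spheroids of cancer cells with HUVEC and MSCs. Viability indicated growth inhibition.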
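Further: spheroids exposed to compounds for 7 days.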

Cn1ncc(Cl)c1-c1cc(C(=O)NC(CN)Cc2cccc(F)c2)sc1Cl (centres undefined)
viability, T/C (compound 0.0316 µM): 104% and 107% and 76.9% | viability, T/C (compound 0.1 µM): 82.6% and 66.1% and 92.1% | viability, T/C (compound 0.316 µM): 70.9% and 90.8% and 66.1% | viability, T/C (compound 1 µM): 26.1% and 32.2% and 54.4% | viability, T/C (compound 3.16 µM): 20.6% and 20.1% and 23.6% | viability, T/C (compound 10 µM): 8.15% and 8% and 9.52% | IC50 (curve of compound): 0.641 µM and 0.571 µM and 0.978 µM

Cn1ncc(Cl)c1-c1cc(C(=O)NC(CN)Cc2cccc(F)c2)sc1Cl (centres undefined) + Cc1nc(NC(=O)N2CCCC2C(N)=O)sc1-c1ccnc(C(C)(C)C(F)(F)F)c1
IC50 (curve of first compound, second compound 0.0316 µM): 0.579 µM | IC50 (curve of first compound, second compound 0.1 µM): 0.4 µM | IC50 (curve of first compound, second compound 0.316 µM): < 0.0316 µM | IC50 (curve of first compound, second compound 1 µM): < 0.0316 µM | IC50 (curve of first compound, second compound 3.16 µM): < 0.0316 µM | IC50 (curve of first compound, second compound 10 µM): < 0.0316 µM | viability, T/C (second compound 0.0316 µM, first compound 0.0316 µM): 83.5% | viability, T/C (second compound 0.0316 µM, first compound 0.1 µM): 67.3% | viability, T/C (second compound 0.0316 µM, first compound 0.316 µM): 71.8% | viability, T/C (second compound 0.0316 µM, first compound 1 µM): 31.2% | viability, T/C (second compound 0.0316 µM, first compound 3.16 µM): 18.6% | viability, T/C (second compound 0.0316 µM, first compound 10 µM): 6.47% | viability, T/C (second compound 0.1 µM, first compound 0.0316 µM): 58.5% | viability, T/C (second compound 0.1 µM, first compound 0.1 µM): 82% | viability, T/C (second compound 0.1 µM, first compound 0.316 µM): 51.6% | viability, T/C (second compound 0.1 µM, first compound 1 µM): 28.1% | viability, T/C (second compound 0.1 µM, first compound 3.16 µM): 21.7% | viability, T/C (second compound 0.1 µM, first compound 10 µM): 6.76% | viability, T/C (second compound 0.316 µM, first compound 0.0316 µM): 42.9% | viability, T/C (second compound 0.316 µM, first compound 0.1 µM): 41% | viability, T/C (second compound 0.316 µM, first compound 0.316 µM): 38% | viability, T/C (second compound 0.316 µM, first compound 1 µM): 27.2% | viability, T/C (second compound 0.316 µM, first compound 3.16 µM): 14.2% | viability, T/C (second compound 0.316 µM, first compound 10 µM): 7.01% | viability, T/C (second compound 1 µM, first compound 0.0316 µM): 31.9% | viability, T/C (second compound 1 µM, first compound 0.1 µM): 34.8% | viability, T/C (second compound 1 µM, first compound 0.316 µM): 29.2% | viability, T/C (second compound 1 µM, first compound 1 µM): 19.1% | viability, T/C (second compound 1 µM, first compound 3.16 µM): 16.2% | viability, T/C (second compound 1 µM, first compound 10 µM): 4.12% | viability, T/C (second compound 3.16 µM, first compound 0.0316 µM): 15.7% | viability, T/C (second compound 3.16 µM, first compound 0.1 µM): 14.7% | viability, T/C (second compound 3.16 µM, first compound 0.316 µM): 15.8% | viability, T/C (second compound 3.16 µM, first compound 1 µM): 16.9% | viability, T/C (second compound 3.16 µM, first compound 3.16 µM): 11.9% | viability, T/C (second compound 3.16 µM, first compound 10 µM): 1.21% | viability, T/C (second compound 10 µM, first compound 0.0316 µM): 9.08% | viability, T/C (second compound 10 µM, first compound 0.1 µM): 7.96% | viability, T/C (second compound 10 µM, first compound 0.316 µM): 6.42% | viability, T/C (second compound 10 µM, first compound 1 µM): 8.32% | viability, T/C (second compound 10 µM, first compound 3.16 µM): 4.5% | viability, T/C (second compound 10 µM, first compound 10 µM): 0.47%

Source: PubChem BioAssay AID1963976 (Molecular Pharmacology Branch, DTP, NCI, 2024)
